Assay results as given in article PMC5218480 (PLoS ONE, 2017).

Tested on: MV-4-11 cells
Experiment: Gene expression microarray analysis (Affymetrix PrimeView) and GSEA
Type: cell-based, human
Parameters: RFU PODN (11730768_x_at) / Fold change /veh PODN (11730768_x_at) / RFU LINC00158 (11744669_a_at) / Fold change /veh LINC00158 (11744669_a_at) / RFU DUSP10 (11751237_a_at) / Fold change /veh DUSP10 (11751237_a_at) / RFU ID3 (11757404_x_at) / Fold change /veh ID3 (11757404_x_at) / RFU PLEKHG5 (11737974_s_at) / Fold change /veh PLEKHG5 (11737974_s_at) / RFU LRRC4B (11730491_at) / Fold change /veh LRRC4B (11730491_at) / RFU GIMAP4 (11747438_a_at) / Fold change /veh GIMAP4 (11747438_a_at) / RFU KRT8 (11758183_x_at) / Fold change /veh KRT8 (11758183_x_at) / RFU CNN1 (11734310_a_at) / Fold change /veh CNN1 (11734310_a_at) / RFU VPS37D (11726825_at) / Fold change /veh VPS37D (11726825_at) / RFU C10orf10 (11716522_x_at) / Fold change /veh C10orf10 (11716522_x_at) / RFU KIR2DL2 /// KIR2DL4 /// KIR2DL5A /// KIR2DL5B /// KIR2DS1 /// KIR2DS2 /// KIR2DS3 /// KIR2DS4 /// KIR3DL3 /// KIR3DL3 /// KIR3DS1 (11738374_at) / Fold change /veh KIR2DL2 /// KIR2DL4 /// KIR2DL5A /// KIR2DL5B /// KIR2DS1 /// KIR2DS2 /// KIR2DS3 /// KIR2DS4 /// KIR3DL3 /// KIR3DL3 /// KIR3DS1 (11738374_at) / RFU C1QL1 (11718748_at) / Fold change /veh C1QL1 (11718748_at) / RFU TMPRSS4 (11747572_a_at) / Fold change /veh TMPRSS4 (11747572_a_at) / RFU HAMP (11756126_x_at) / Fold change /veh HAMP (11756126_x_at) / RFU RNFT2 (11725882_a_at) / Fold change /veh RNFT2 (11725882_a_at) / RFU NR4A2 (11747474_a_at) / Fold change /veh NR4A2 (11747474_a_at) / RFU ABCC12 (11746883_a_at) / Fold change /veh ABCC12 (11746883_a_at) / RFU TMEM136 (11760407_x_at) / Fold change /veh TMEM136 (11760407_x_at) / RFU CLDN22 /// WWC2 (11732394_at) / Fold change /veh CLDN22 /// WWC2 (11732394_at) / RFU HLA-DPB1 (11760878_x_at) / Fold change /veh HLA-DPB1 (11760878_x_at) / RFU SPINT1 (11716480_a_at) / Fold change /veh SPINT1 (11716480_a_at) / RFU GAP43 (11754022_s_at) / Fold change /veh GAP43 (11754022_s_at) / RFU A4GNT (11735810_at) / Fold change /veh A4GNT (11735810_at) / RFU PRB3 (11715151_x_at) / Fold change /veh PRB3 (11715151_x_at) / RFU TUBB4B (11761932_at) / Fold change /veh TUBB4B (11761932_at) / RFU CAPN14 (11732068_a_at) / Fold change /veh CAPN14 (11732068_a_at) / RFU TMCC2 (11721928_a_at) / Fold change /veh TMCC2 (11721928_a_at) / RFU IRGQ (11745062_a_at) / Fold change /veh IRGQ (11745062_a_at) / RFU FAM174B (11720279_a_at) / Fold change /veh FAM174B (11720279_a_at) / RFU TMPRSS4 (11748680_a_at) / Fold change /veh TMPRSS4 (11748680_a_at) / RFU FAM212B (11763350_a_at) / Fold change /veh FAM212B (11763350_a_at) / RFU PLEKHG5 (11743358_a_at) / Fold change /veh PLEKHG5 (11743358_a_at) / RFU ZSCAN30 (11745921_a_at) / Fold change /veh ZSCAN30 (11745921_a_at) / RFU CMKLR1 (11741424_a_at) / Fold change /veh CMKLR1 (11741424_a_at) / RFU LOC101060620 /// MAPK8IP1 (11723275_at) / Fold change /veh LOC101060620 /// MAPK8IP1 (11723275_at) / RFU SPTSSB (11747773_x_at) / Fold change /veh SPTSSB (11747773_x_at) / RFU PRSS12 (11739890_at) / Fold change /veh PRSS12 (11739890_at) / RFU BIN1 (11741810_x_at) / Fold change /veh BIN1 (11741810_x_at) / RFU WNT11 (11732464_a_at) / Fold change /veh WNT11 (11732464_a_at) / RFU C10orf10 (11716521_a_at) / Fold change /veh C10orf10 (11716521_a_at) / RFU C5orf56 (11738089_at) / Fold change /veh C5orf56 (11738089_at) / RFU CYB561 (11721691_x_at) / Fold change /veh CYB561 (11721691_x_at) / RFU ANKRD19P (11752326_a_at) / Fold change /veh ANKRD19P (11752326_a_at) / RFU OR2T12 /// OR2T33 /// OR2T8 (11738714_s_at) / Fold change /veh OR2T12 /// OR2T33 /// OR2T8 (11738714_s_at) / RFU VCAN (11748164_a_at) / Fold change /veh VCAN (11748164_a_at) / RFU JSRP1 (11732532_at) / Fold change /veh JSRP1 (11732532_at) / RFU KRTAP10-11 (11738290_x_at) / Fold change /veh KRTAP10-11 (11738290_x_at) / RFU MYO3A (11730013_a_at) / Fold change /veh MYO3A (11730013_a_at) / RFU EBF3 (11725865_a_at) / Fold change /veh EBF3 (11725865_a_at) / RFU CAMK2N1 (11719241_x_at) / Fold change /veh CAMK2N1 (11719241_x_at) / RFU C5orf56 (11738088_a_at) / Fold change /veh C5orf56 (11738088_a_at) / RFU OLFML3 (11715873_a_at) / Fold change /veh OLFML3 (11715873_a_at) / RFU LOC100653217 /// NTM (11731650_a_at) / Fold change /veh LOC100653217 /// NTM (11731650_a_at) / RFU MAPK11 (11762145_a_at) / Fold change /veh MAPK11 (11762145_a_at) / RFU FIZ1 (11724087_x_at) / Fold change /veh FIZ1 (11724087_x_at) / RFU OASL (11726364_x_at) / Fold change /veh OASL (11726364_x_at) / RFU SOX15 (11748057_x_at) / Fold change /veh SOX15 (11748057_x_at) / RFU CD79A (11719716_a_at) / Fold change /veh CD79A (11719716_a_at) / RFU HIST1H1D (11736915_at) / Fold change /veh HIST1H1D (11736915_at) / RFU CASKIN2 (11723855_a_at) / Fold change /veh CASKIN2 (11723855_a_at) / RFU LOC730098 (11760151_x_at) / Fold change /veh LOC730098 (11760151_x_at) / RFU OR4N2 (11742367_at) / Fold change /veh OR4N2 (11742367_at) / RFU PRRT2 (11749266_a_at) / Fold change /veh PRRT2 (11749266_a_at) / RFU SNX32 (11753110_a_at) / Fold change /veh SNX32 (11753110_a_at) / RFU CDHR5 (11726645_a_at) / Fold change /veh CDHR5 (11726645_a_at) / RFU RCAN1 (11760418_a_at) / Fold change /veh RCAN1 (11760418_a_at) / RFU FAM167A (11723789_a_at) / Fold change /veh FAM167A (11723789_a_at) / RFU FAM26E (11764081_at) / Fold change /veh FAM26E (11764081_at) / RFU ISYNA1 (11749810_s_at) / Fold change /veh ISYNA1 (11749810_s_at) / RFU ACY1 (11761880_at) / Fold change /veh ACY1 (11761880_at) / RFU 11764098_at / Fold change /veh 11764098_at / RFU SAMD14 (11745864_x_at) / Fold change /veh SAMD14 (11745864_x_at) / RFU NPB (11741838_a_at) / Fold change /veh NPB (11741838_a_at) / RFU TMPRSS6 (11731388_a_at) / Fold change /veh TMPRSS6 (11731388_a_at) / RFU KRTAP10-2 (11738614_at) / Fold change /veh KRTAP10-2 (11738614_at) / RFU ARHGAP8 /// PRR5-ARHGAP8 (11727945_x_at) / Fold change /veh ARHGAP8 /// PRR5-ARHGAP8 (11727945_x_at) / RFU KRTAP5-7 /// NADSYN1 (11734609_at) / Fold change /veh KRTAP5-7 /// NADSYN1 (11734609_at) / RFU RASL12 (11751679_a_at) / Fold change /veh RASL12 (11751679_a_at) / RFU CDKN2B (11736163_a_at) / Fold change /veh CDKN2B (11736163_a_at) / RFU PRF1 (11729649_at) / Fold change /veh PRF1 (11729649_at) / RFU, ZNF638 /// ZNF638-IT1 / Fold change vs veh, ZNF638 /// ZNF638-IT1 / RFU, PANK3 / Fold change vs veh, PANK3 / RFU, SH3YL1 / Fold change vs veh, SH3YL1 / RFU, ZEB2 / Fold change vs veh, ZEB2 / RFU, NRIP1 / Fold change vs veh, NRIP1 / RFU, PTTG1IP / Fold change vs veh, PTTG1IP / RFU, CAPN2 / Fold change vs veh, CAPN2 / RFU, MED14 / Fold change vs veh, MED14 / RFU, SNORA58 / Fold change vs veh, SNORA58 / RFU, C1orf63 / Fold change vs veh, C1orf63 / RFU, LRRFIP1 / Fold change vs veh, LRRFIP1 / RFU, NDUFAF7 / Fold change vs veh, NDUFAF7 / RFU, SLC12A2 / Fold change vs veh, SLC12A2 / RFU, IBTK / Fold change vs veh, IBTK / RFU, ESF1 / Fold change vs veh, ESF1 / Fold change vs veh, TMEM50B / RFU, TAOK1 / Fold change vs veh, TAOK1 / RFU, ACBD3 / Fold change vs veh, ACBD3 / RFU, TMA16 / Fold change vs veh, TMA16 / RFU, RWDD3 / Fold change vs veh, RWDD3 / RFU, BCAT1 / Fold change vs veh, BCAT1 / RFU, EDEM3 / Fold change vs veh, EDEM3 / RFU, TMEM33 / Fold change vs veh, TMEM33 / RFU, WDR75 / Fold change vs veh, WDR75 / RFU, AHCTF1 / Fold change vs veh, AHCTF1 / RFU, TFRC / Fold change vs veh, TFRC / RFU, ZDHHC17 / Fold change vs veh, ZDHHC17 / RFU, NOM1 / Fold change vs veh, NOM1 / RFU, ARL8B / Fold change vs veh, ARL8B / RFU, ZBTB11 / Fold change vs veh, ZBTB11 / RFU, TAMM41 / Fold change vs veh, TAMM41 / RFU, KIAA1704 /// LOC100996395 / Fold change vs veh, KIAA1704 /// LOC100996395 / RFU, ING1 / Fold change vs veh, ING1 / RFU, TRMT61B / Fold change vs veh, TRMT61B / RFU, FUBP3 / Fold change vs veh, FUBP3 / RFU, TP53 / Fold change vs veh, TP53 / RFU, TNKS2 / Fold change vs veh, TNKS2 / RFU, ZFP14 / Fold change vs veh, ZFP14 / RFU, ACTR2 / Fold change vs veh, ACTR2 / RFU, PPP3R1 / Fold change vs veh, PPP3R1 / RFU, PIK3R1 / Fold change vs veh, PIK3R1 / RFU, HNRNPA1 / Fold change vs veh, HNRNPA1 / RFU, RNF170 / Fold change vs veh, RNF170 / RFU, ZNF28 / Fold change vs veh, ZNF28 / RFU, RNGTT / Fold change vs veh, RNGTT / RFU, OGT / Fold change vs veh, OGT / RFU, BRD1 / Fold change vs veh, BRD1 / RFU, MARS / Fold change vs veh, MARS / RFU, ZNF655 / Fold change vs veh, ZNF655 / RFU, FAHD1 / Fold change vs veh, FAHD1 / RFU, BDP1 / Fold change vs veh, BDP1 / RFU, LRRCC1 / Fold change vs veh, LRRCC1 / RFU, ARID1A / Fold change vs veh, ARID1A / RFU, ZNF146 / Fold change vs veh, ZNF146 / RFU, ZNF330 / Fold change vs veh, ZNF330 / RFU, GPN3 / Fold change vs veh, GPN3 / RFU, C9orf123 / Fold change vs veh, C9orf123 / RFU, N4BP2L2 / Fold change vs veh, N4BP2L2 / RFU, ARFIP1 / Fold change vs veh, ARFIP1 / RFU, FAM179B / Fold change vs veh, FAM179B / RFU, BCL10 / Fold change vs veh, BCL10 / RFU, UHRF1BP1L / Fold change vs veh, UHRF1BP1L / RFU, BET1 / Fold change vs veh, BET1 / RFU, CNOT2 / Fold change vs veh, CNOT2 / RFU, ZNF268 / Fold change vs veh, ZNF268 / Fold change vs veh, ZNF507 / RFU, DGCR2 / Fold change vs veh, DGCR2 / RFU, WDSUB1 / Fold change vs veh, WDSUB1 / Fold change vs veh, HSP90B1 /// MIR3652 / RFU, ADSS / Fold change vs veh, ADSS / RFU, GK / Fold change vs veh, GK / RFU, ZNF148 / Fold change vs veh, ZNF148 / RFU, TAF9 / Fold change vs veh, TAF9 / RFU, SLC1A5 / Fold change vs veh, SLC1A5 / RFU, SLMO2 / Fold change vs veh, SLMO2 / RFU, ABCC4 / Fold change vs veh, ABCC4 / RFU, LOC101060439 /// RAP1B / Fold change vs veh, LOC101060439 /// RAP1B / RFU, RFX7 / Fold change vs veh, RFX7 / RFU, GTPBP10 / Fold change vs veh, GTPBP10 / RFU, CNEP1R1 / Fold change vs veh, CNEP1R1 / RFU, BIVM-ERCC5 /// ERCC5 / Fold change vs veh, BIVM-ERCC5 /// ERCC5 / RFU, ILF3 / Fold change vs veh, ILF3 / RFU 11762660_at / Fold change /veh 11762660_at / RFU VCAN (11757783_s_at) / Fold change /veh VCAN (11757783_s_at) / RFU DDX43 (11728927_at) / Fold change /veh DDX43 (11728927_at) / RFU KRT8 (11758188_x_at) / Fold change /veh KRT8 (11758188_x_at) / RFU NKD1 (11759106_at) / Fold change /veh NKD1 (11759106_at) / RFU SRD5A1 (11742802_a_at) / Fold change /veh SRD5A1 (11742802_a_at) / RFU TPSAB1 /// TPSB2 (11721975_s_at) / Fold change /veh TPSAB1 /// TPSB2 (11721975_s_at) / RFU GSTM3 (11746129_a_at) / Fold change /veh GSTM3 (11746129_a_at) / RFU IL23R (11737362_x_at) / Fold change /veh IL23R (11737362_x_at) / RFU TMEM51 (11727254_a_at) / Fold change /veh TMEM51 (11727254_a_at) / RFU PIWIL2 (11732686_x_at) / Fold change /veh PIWIL2 (11732686_x_at) / RFU ORM1 (11744905_x_at) / Fold change /veh ORM1 (11744905_x_at) / RFU CCDC152 (11743942_at) / Fold change /veh CCDC152 (11743942_at) / RFU ECM1 (11717891_a_at) / Fold change /veh ECM1 (11717891_a_at) / RFU IL23R (11748794_a_at) / Fold change /veh IL23R (11748794_a_at) / RFU TNFAIP8L3 (11732012_x_at) / Fold change /veh TNFAIP8L3 (11732012_x_at) / RFU MBOAT4 (11741988_at) / Fold change /veh MBOAT4 (11741988_at) / RFU 11764193_at / Fold change /veh 11764193_at / RFU TMEM53 (11763286_at) / Fold change /veh TMEM53 (11763286_at) / RFU MAGEB2 (11727129_at) / Fold change /veh MAGEB2 (11727129_at) / RFU TMEM200A (11744735_a_at) / Fold change /veh TMEM200A (11744735_a_at) / RFU CCDC152 (11751479_a_at) / Fold change /veh CCDC152 (11751479_a_at) / RFU FAM211A (11726209_a_at) / Fold change /veh FAM211A (11726209_a_at) / RFU RGS16 (11746705_a_at) / Fold change /veh RGS16 (11746705_a_at) / RFU VCAN (11755009_s_at) / Fold change /veh VCAN (11755009_s_at) / RFU RHOB (11743442_s_at) / Fold change /veh RHOB (11743442_s_at) / RFU RGS16 (11720943_a_at) / Fold change /veh RGS16 (11720943_a_at) / RFU RGS16 (11720944_at) / Fold change /veh RGS16 (11720944_at) / RFU, VPS4B / Fold change vs veh, VPS4B / RFU, CREB1 / Fold change vs veh, CREB1 / RFU, DNAJC13 / Fold change vs veh, DNAJC13 / RFU, GNAQ / Fold change vs veh, GNAQ / RFU, CDK5R1 / Fold change vs veh, CDK5R1 / RFU, ZRANB3 / Fold change vs veh, ZRANB3 / RFU, CUL4A / Fold change vs veh, CUL4A / RFU, CCNY / Fold change vs veh, CCNY / RFU, UFL1 / Fold change vs veh, UFL1 / RFU, COG3 / Fold change vs veh, COG3 / RFU, DIAPH2 / Fold change vs veh, DIAPH2 / RFU, SKA2 / Fold change vs veh, SKA2 / RFU, AFF3 / Fold change vs veh, AFF3 / RFU, LMF1 / Fold change vs veh, LMF1 / RFU, IPO11 / Fold change vs veh, IPO11 / RFU, DFFB / Fold change vs veh, DFFB / RFU, FOXP1 / Fold change vs veh, FOXP1 / RFU, CARD8 / Fold change vs veh, CARD8 / RFU, STRN3 / Fold change vs veh, STRN3 / RFU, ADK / Fold change vs veh, ADK / RFU, RASSF2 / Fold change vs veh, RASSF2 / RFU, WIPF1 / Fold change vs veh, WIPF1 / RFU, LARP1B / Fold change vs veh, LARP1B / RFU, RASA1 / Fold change vs veh, RASA1 / RFU, RB1 / Fold change vs veh, RB1 / RFU, PPFIA1 / Fold change vs veh, PPFIA1 / RFU, MAT2A / Fold change vs veh, MAT2A / RFU, CCT5 / Fold change vs veh, CCT5 / RFU, WDR92 / Fold change vs veh, WDR92 / RFU, CUX1 / Fold change vs veh, CUX1 / RFU, TTC7A / Fold change vs veh, TTC7A / RFU, TMEM135 / Fold change vs veh, TMEM135 / RFU, DEPTOR / Fold change vs veh, DEPTOR / RFU, CPM / Fold change vs veh, CPM / RFU, DNAJB6 / Fold change vs veh, DNAJB6 / RFU, CACNA2D3 / Fold change vs veh, CACNA2D3 / RFU, DTX4 / Fold change vs veh, DTX4 / RFU, TFCP2 / Fold change vs veh, TFCP2 / RFU, GMCL1 /// GMCL1P1 / Fold change vs veh, GMCL1 /// GMCL1P1 / RFU, AEBP2 / Fold change vs veh, AEBP2 / RFU, SNHG1 /// SNORD22 /// SNORD25 /// SNORD26 /// SNORD27 /// SNORD28 /// SNORD29 /// SNORD31 / Fold change vs veh, SNHG1 /// SNORD22 /// SNORD25 /// SNORD26 /// SNORD27 /// SNORD28 /// SNORD29 /// SNORD31 / Fold change (Aza/veh), C12orf56 (ProbeSet 11735607_a_at) / Fold change (ACY-1035/veh), C12orf56 (ProbeSet 11735607_a_at) / Fold change (Aza/veh), FGFR1OP (ProbeSet 11751329_s_at) / Fold change (ACY-1035/veh), FGFR1OP (ProbeSet 11751329_s_at) / Fold change (Aza/veh), VPS36 (ProbeSet 11739960_a_at) / Fold change (ACY-1035/veh), VPS36 (ProbeSet 11739960_a_at) / RFU SYPL1 (11715823_x_at) / Fold change /veh SYPL1 (11715823_x_at) / RFU IGFBP7 (11715501_s_at) / Fold change /veh IGFBP7 (11715501_s_at) / RFU REEP3 (11722064_at) / Fold change /veh REEP3 (11722064_at) / RFU IGLL1 (11728026_x_at) / Fold change /veh IGLL1 (11728026_x_at): dose or concentration left out as unconfirmed
Conditions: ProbeSet 11743580_s_at; LIST B

## Nc1ccc(-c2cccs2)cc1NC(=O)c1ccc2c(c1)cc(C1CC1)n2CCN1CCOCC1 [ACY-1035]
  Fold change vs veh, ACTR2: 0.83
